Molecular target: p38a activated, mitogen-activated protein kinase-activated protein kinase 2 (MAPKAP-K2 or MK2) enzyme (Homo sapiens (Human), UniProt P49137)
Test: MK2 Omnia continuous-read kinase assay for compound potency
Format: biochemical
Conditions: [MK-2]=0.4 nM, [ATP]=10 μM, [ST3-Sox]=10 μM; room temperature
Excerpt: Mitogen-Activated Protein Kinase-Activated Protein Kinase 2 Omnia® Assay for Compound Potency Assessment:
The protocol below describes a continuous-read kinase assay optimized to measure potency of compounds against p38a activated, mitogen-activated protein kinase-activated protein kinase 2 (MAPKAP-K2 or MK2) enzyme. Further details of this assay are described by Life Technologies, Carlsbad, CA on their website at the following URL: http://tools.lifetechnologies.com/content/sfs/manuals/omnia_kinase_assay_man.pdf. • [Reagent] used: • [MK-2]=0.4 nM, • [ATP]=10 μM and • [ST3-Sox]=10 μM (ATP^appKM=10 μM)
Briefly, 10× stock solutions of MK2 (PV3317, from Life Technologies), 1.13X ATP (AS001A), and Sox conjugated peptide substrate, S/T3-Sox, (KZN1031) were prepared in 1× kinase reaction buffer consisting of 20 mM Tris, pH 7.5, 5 mM MgCl2, 1 mM EGTA, 5 mM β-glycerophosphate, 5% glycerol (10× stock, KB001A) and 0.2 mM DTT (DS001A). Enzyme solution (5 μL) was added to each of DMSO ([…]) or serially diluted test compounds prepared in DMSO in a Corning (#3574) 384-well, white, non-binding surface microtiter plate (Corning, NY). Kinase reactions were started with the addition of 45 μL of the ATP-peptide substrate S/T3-Sox mix and monitored every 71 seconds for 120 minutes at λex360/λem485 in a Synergy H4 plate reader from BioTek (Winooski, VT) at room temperature.
Background signals from the no enzyme control wells were subtracted from all progress curves. The initial linear portions of the net progress curves were fit according to a linear equation to yield the slope and percentage of inhibition (% inhibition) at each compound concentration. The net progress curves obtained during the first two hours of reactions were also fit according to an ascending single-exponential equation (Eq. 1) to yield kobs values at each compound concentration. Plots of % Inhibition versus inhibitor concentrations were fit according to a dose-response equation (Eq. 2) to generate IC50 and Hill slope values while plots of kobs versus inhibitor concentration were fit according to Equation 3 (Eq. 3) to generate apparent kinact/K1 values using the GraphPad PRISM software (Version 6.00; GraphPad San Diego, CA).
where F is the fluorescence intensity from the plate reader, V0 is a constant reflecting the relationship between the instrument readout and product concentration, t is time, e is Euler's number, and kobs is the observed inactivation rate constant.
where % Inhibition is percentage of inhibition, IC50 is half maximal inhibitory concentration, [I] is the inhibitor concentration, and n is the Hill slope.
where kobs is the observed inactivation rate constant, kinact is the apparent inactivation rate constant, K1 is the apparent inhibition constant, and [I] is the inhibitor concentration. […] Potency results for the compounds tested are shown in Table 4 in the column entitled “MK2 IC50.”

Chain of p38a activated, mitogen-activated protein kinase-activated protein kinase 2 (MAPKAP-K2 or MK2) enzyme (P49137 whole entry): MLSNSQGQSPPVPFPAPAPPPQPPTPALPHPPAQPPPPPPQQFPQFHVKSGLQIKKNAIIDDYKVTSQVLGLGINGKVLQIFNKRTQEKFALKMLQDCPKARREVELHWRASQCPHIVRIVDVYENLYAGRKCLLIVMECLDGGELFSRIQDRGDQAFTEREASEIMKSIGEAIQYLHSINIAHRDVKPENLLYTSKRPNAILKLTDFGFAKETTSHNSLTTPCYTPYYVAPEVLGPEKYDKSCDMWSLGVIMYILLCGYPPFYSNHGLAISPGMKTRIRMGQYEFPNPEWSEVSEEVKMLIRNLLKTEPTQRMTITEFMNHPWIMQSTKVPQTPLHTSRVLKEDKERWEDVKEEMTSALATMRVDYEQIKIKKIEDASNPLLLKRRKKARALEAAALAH

For C=Cc1cc(C(F)(F)F)nn1-c1ccc2c(ccc3sc4c(c32)NC[C@@H](C)NC4=O)n1 [Example I-241, (R)-10-methyl-3-(3-(trifluoromethyl)-5-vinyl-1H-pyrazol-1-yl)-9,10,11,12-tetrahydro-8H-[1,4]diazepino[5′,6′:4,5]thieno[3,2-f]quinolin-8-one], the IC50 was 1000 nM.
With C[C@@H]1CNc2c(sc3ccc4nc(-c5cc(Cl)nc(CO)n5)ccc4c23)C(=O)N1 [Example I-74, (R)-3-(6-chloro-2-(hydroxymethyl)pyrimidin-4-yl)-10-methyl-9,10,11,12-tetrahydro-8H-[1,4]diazepino[5′,6′:4,5]thieno[3,2-f]quinolin-8-one] the IC50 was 4 nM.
With C=Cc1cc(-c2ccc3c(ccc4sc5c(c43)NC[C@@H](C)NC5=O)n2)cc(C2=CCN(C)CC2)n1 [Example I-101, (R)-10-methyl-3-(1′-methyl-6-vinyl-1′,2′,3′,6′-tetrahydro-[2,4′-bipyridin]-4-yl)-9,10,11,12-tetrahydro-8H-[1,4]diazepino[5′,6′:4,5]thieno[3,2-f]quinolin-8-one] the IC50 was 8 nM.
With C=Cc1nc(CO)cc(-c2ccc3c(ccc4sc5c(c43)NC[C@@H](C)NC5=O)n2)n1 [Example I-85, (R)-3-(6-(hydroxymethyl)-2-vinylpyrimidin-4-yl)-10-methyl-9,10,11,12-tetrahydro-8H-[1,4]diazepino[5′,6′:4,5]thieno[3,2-f]quinolin-8-one] the IC50 was 11 nM.
For C=Cc1cc(-c2ccc3c(ccc4sc5c(c43)NC[C@@H](C)NC5=O)n2)cc(N2CCC2)n1 [Example I-179, (R)-3-(2-(azetidin-1-yl)-6-vinylpyridin-4-yl)-10-methyl-9,10,11,12-tetrahydro-8H-[1,4]diazepino[5′,6′:4,5]thieno[3,2-f]quinolin-8-one], the IC50 was 11 nM.
For C=Cc1ncc(OC)c(-c2ccc3c(ccc4sc5c(c43)NC[C@@H](C)NC5=O)n2)n1 [Example I-32, (R)-3-(5-methoxy-2-vinylpyrimidin-4-yl)-10-methyl-9,10,11,12-tetrahydro-8H-[1,4]diazepino[5′,6′:4,5]thieno[3,2-f]quinolin-8-one], the IC50 was 245 nM.
With C#Cc1cc(-c2ccc3c(ccc4sc5c(c43)NC[C@@H](C)NC5=O)n2)cc(N2CCC(F)(F)CC2)n1 [Example I-182, (R)-3-(2-(4,4-difluoropiperidin-1-yl)-6-ethynylpyridin-4-yl)-10-methyl-9,10,11,12-tetrahydro-8H-[1,4]diazepino[5′,6′:4,5]thieno[3,2-f]quinolin-8-one] the IC50 was 1000 nM.
C=Cc1cc(-c2ccc3c(ccc4sc5c(c43)NC[C@@H](C)NC5=O)n2)c(CN2CCC(C(F)(F)F)CC2)cn1 [Example I-212, (R)-10-methyl-3-(5-((4-(trifluoromethyl)piperidin-1-yl)methyl)-2-vinylpyridin-4-yl)-9,10,11,12-tetrahydro-8H-[1,4]diazepino[5′,6′:4,5]thieno[3,2-f]quinolin-8-one] gave an IC50 of 92 nM.
Compound C[C@@H]1CNc2c(sc3ccc4nc(-n5ccnc5C#N)ccc4c23)C(=O)N1 [Example I-246, (R)-1-(10-methyl-8-oxo-9,10,11,12-tetrahydro-8H-[1,4]diazepino[5′,6′:4,5]thieno[3,2-f]quinolin-3-yl)-1H-imidazole-2-carbonitrile] has an IC50 of 16 nM.
C=Cc1nncn1-c1ccc2c(ccc3sc4c(c32)NC[C@@H](C)NC4=O)n1 [Example I-203, (R)-10-methyl-3-(3-vinyl-4H-1,2,4-triazol-4-yl)-9,10,11,12-tetrahydro-8H-[1,4]diazepino[5′,6′:4,5]thieno[3,2-f]quinolin-8-one] was tested, and the IC50 was 9 nM.
With C=Cc1ncc(COCC)c(-c2ccc3c(ccc4sc5c(c43)NC[C@@H](C)NC5=O)n2)n1 [Example I-5, (R)-3-(5-(ethoxymethyl)-2-vinylpyrimidin-4-yl)-10-methyl-9,10,11,12-tetrahydro-8H-[1,4]diazepino[5′,6′:4,5]thieno[3,2-f]quinolin-8-one] the IC50 was 7 nM.
C[C@@H]1CNc2c(sc3ccc4nc(-c5cc(Cl)nc(COC6CCOCC6)n5)ccc4c23)C(=O)N1 [Example I-23, (R)-3-(6-chloro-2-(((tetrahydro-2H-pyran-4-yl)oxy)methyl)pyrimidin-4-yl)-10-methyl-9,10,11,12-tetrahydro-8H-[1,4]diazepino[5′,6′:4,5]thieno[3,2-f]quinolin-8-one] gave an IC50 of 487 nM.
For C[C@@H]1CNc2c(sc3ccc4nc(-c5nc(Cl)nc6c5CN(C)CC6)ccc4c23)C(=O)N1 [Example I-192, (R)-3-(2-chloro-6-methyl-5,6,7,8-tetrahydropyrido[4,3-d]pyrimidin-4-yl)-10-methyl-9,10,11,12-tetrahydro-8H-[1,4]diazepino[5′,6′:4,5]thieno[3,2-f]quinolin-8-one], the IC50 was 257 nM.
With C#Cc1nc(-c2ccc3c(ccc4sc5c(c43)NC[C@@H](C)NC5=O)n2)cc(N2CCN(C)CC2)n1 [Example I-60, (R)-3-(2-ethynyl-6-(4-methylpiperazin-1-yl)pyrimidin-4-yl)-10-methyl-9,10,11,12-tetrahydro-8H-[1,4]diazepino[5′,6′:4,5]thieno[3,2-f]quinolin-8-one] the IC50 was 58 nM.
C#Cc1cc(-c2ccc3c(ccc4sc5c(c43)NC[C@@H](C)NC5=O)n2)cc(C2=CCN(C)CC2)n1 [Example I-102, (R)-3-(6-ethynyl-1′-methyl-1′,2′,3′,6′-tetrahydro-[2,4′-bipyridin]-4-yl)-10-methyl-9,10,11,12-tetrahydro-8H-[1,4]diazepino[5′,6′:4,5]thieno[3,2-f]quinolin-8-one] was tested, and the IC50 was 8 nM.
Cc1cnc(Cl)nc1-c1ccc2c(ccc3sc4c(c32)NC[C@@H](C)NC4=O)n1 [Example I-6, (R)-3-(2-chloro-5-methylpyrimidin-4-yl)-10-methyl-9,10,11,12-tetrahydro-8H-[1,4]diazepino[5′,6′:4,5]thieno[3,2-f]quinolin-8-one] was tested, and the IC50 was 912 nM.
C[C@@H]1CNc2c(sc3ccc4nc(-c5cc(Cl)nc(N6CCN(C)CC6)c5)ccc4c23)C(=O)N1 [Example I-94, (R)-3-(2-chloro-6-(4-methylpiperazin-1-yl)pyridin-4-yl)-10-methyl-9,10,11,12-tetrahydro-8H-[1,4]diazepino[5′,6′:4,5]thieno[3,2-f]quinolin-8-one] showed an IC50 of 43 nM.
For C=Cc1cc(-c2ccc3c(ccc4sc5c(c43)NC[C@@H](CF)NC5=O)n2)c(C)cn1 [Example I-254, (S)-10-(fluoromethyl)-3-(5-methyl-2-vinylpyridin-4-yl)-9,10,11,12-tetrahydro-8H-[1,4]diazepino[5′,6′:4,5]thieno[3,2-f]quinolin-8-one], the IC50 was 27 nM.
C=Cc1cc(-c2ccc3c(ccc4sc5c(c43)NC[C@@H](C)NC5=O)n2)cc(N2CCC(C(F)(F)F)CC2)n1 [Example I-202, (R)-10-methyl-3-(2-(4-(trifluoromethyl)piperidin-1-yl)-6-vinylpyridin-4-yl)-9,10,11,12-tetrahydro-8H-[1,4]diazepino[5′,6′:4,5]thieno[3,2-f]quinolin-8-one] gave an IC50 of 674 nM.
Compound C[C@@H]1CNc2c(sc3ccc4nc(-c5cc(Cl)nc(Cl)n5)ccc4c23)C(=O)N1 [Example I-58, (R)-3-(2,6-dichloropyrimidin-4-yl)-10-methyl-9,10,11,12-tetrahydro-8H-[1,4]diazepino[5′,6′:4,5]thieno[3,2-f]quinolin-8-one] has an IC50 of 16 nM.
With “(R)-3-(2-chloro-5-(ethoxymethyl)pyrimidin-4-yl)-10-methyl-9,10,11,12-tetrahydro-8H-[1,4]diazepino[5′,6′:4,5]thieno[3,2-f]quinolin- [Example I-3]” the IC50 was 107 nM.
C=Cc1cc(-c2ccc3c(ccc4sc5c(c43)NC[C@@H](C)NC5=O)n2)cc(N2CCCCC2)n1 [Example I-177, (R)-10-methyl-3-(2-(piperidin-1-yl)-6-vinylpyridin-4-yl)-9,10,11,12-tetrahydro-8H-[1,4]diazepino[5′,6′:4,5]thieno[3,2-f]quinolin-8-one] gave an IC50 of 140 nM.
C#Cc1cc(-c2ccc3c(ccc4sc5c(c43)NC[C@@H](C)NC5=O)n2)cc(CN2CCC(OC)CC2)n1 [Example I-122, (R)-3-(2-ethynyl-6-((4-methoxypiperidin-1-yl)methyl)pyridin-4-yl)-10-methyl-9,10,11,12-tetrahydro-8H-[1,4]diazepino[5′,6′:4,5]thieno[3,2-f]quinolin-8-one] gave an IC50 of 40 nM.
